Results as given in US20250270213A1, “PI3Ka INHIBITORS” (Synnovation Therapeutics, Inc., priority 2022, published 2025).

test system: T47D (PIK3CA H1047R) cells; assay: pS473 AKT assay with 2.5% FBS, T47D cells; type: cell-based; conditions: Homo sapiens, pSer473 AKT, DMEM with 2.5% FBS, 2 h treatment, read-out: T47D_IC50
Summary of the method: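 In-cell chemiluminescent ELISA of AKT Ser473 phosphorylation, using anti-pSer473 primary and HRP secondary antibodies on fixed cells. T47D (PIK3CA H1047R) cells had 2 h of compound treatment in DMEM containing 2.5% FBS; IC50 derived from dose-response.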

IC50, < 1 µM:
Cc1cc(C(C)Nc2ccc(Cl)nc2-c2noc(=O)[nH]2)c2c(c1)c(=O)n(C)c1c2cnn1C1CCOC1 (centres unmarked) [Compound 66, 3-(6-Chloro-3-((1-(4,7-dimethyl-5-oxo-3-(tetrahydrofuran-3-yl)-4,5-dihydro-3H-pyrazolo[3,4-c]isoquinolin-9-yl)ethyl)amino)pyridin-2-yl)-1,2,4-oxadiazol-5(4H)-one]
CCn1ncc2c3c(C(C)Nc4ccc(C)nc4-c4ccc(C(=O)NC)c(F)c4)cc(C)cc3c(=O)n(C)c21 (centres unmarked) [Compound 55, 4-(3-((1-(3-ethyl-4,7-dimethyl-5-oxo-4,5-dihydro-3H-pyrazolo[3,4-c]isoquinolin-9-yl)ethyl)amino)-6-methylpyridin-2-yl)-2-fluoro-N-methylbenzamide]
Cc1cc(C(C)Nc2ccccc2C(=O)O)c2c(c1)c(=O)n(C)c1c2cnn1C (centres unmarked) [Compound I-16, 2-((1-(3,4,7-Trimethyl-5-oxo-4,5-dihydro-3H-pyrazolo[3,4-c]isoquinolin-9-yl)ethyl)amino)benzoic acid]
CCn1c(=O)c2cc(C)cc(C(C)Nc3ccc(Cl)nc3-c3ccc(C(=O)NC)nc3)c2c2cnn([C@H]3CCOC3)c21 (stereo partly drawn) [Example 220, 6-chloro-3-((1-(4-ethyl-7-methyl-5-oxo-3-((S)-tetrahydrofuran-3-yl)-4,5-dihydro-3H-pyrazolo[3,4-c]isoquinolin-9-yl)ethyl)amino)-N-methyl-[2,3′-bipyridine]-6′-carboxamide]
Cc1cc(C(C)Nc2ccc(Cl)nc2-c2ccc3ncccc3c2)c2c(c1)c(=O)n(C)c1c2cnn1C1CCN(S(C)(=O)=O)CC1 (centres unmarked) [Example 192, 9-(1-((6-chloro-2-(quinolin-6-yl)pyridin-3-yl)amino)ethyl)-4,7-dimethyl-3-(1-(methylsulfonyl)piperidin-4-yl)-3,4-dihydro-5H-pyrazolo[3,4-c]isoquinolin-5-one]
CC(=O)N1CCC(n2ncc3c4c(C(C)Nc5ccc(Cl)nc5-c5ccc(=O)n(C)c5)cc(C)cc4c(=O)n(C)c32)CC1 (centres unmarked) [Example 187, 3-(1-acetylpiperidin-4-yl)-9-(1-((6-chloro-1′-methyl-6′-oxo-1′,6′-dihydro-[2,3′-bipyridin]-3-yl)amino)ethyl)-4,7-dimethyl-3,4-dihydro-5H-pyrazolo[3,4-c]isoquinolin-5-one]
Cc1cc(C(C)Nc2ccc(Cl)nc2-c2cnn(C)c2)c2c(c1)c(=O)n(C)c1c2cnn1C1CCN(C[C@H](C)O)CC1 (stereo partly drawn) [Compound 174, 9-[1-[[6-chloro-2-(1-methylpyrazol-4-yl)-3-pyridyl]amino]ethyl]-3-[1-[(2S)-2-hydroxypropyl]-4-piperidyl]-4,7-dimethyl-pyrazolo[3,4-c]isoquinolin-5-one]
CCn1ncc2c3c(C(C)Nc4ccc(Cl)nc4C(=O)Nc4ccncc4)cc(C)cc3c(=O)n(C)c21 (centres unmarked) [Compound 74, 6-chloro-3-((1-(3-ethyl-4,7-dimethyl-5-oxo-4,5-dihydro-3H-pyrazolo[3,4-c]isoquinolin-9-yl)ethyl)amino)-N-(pyridin-4-yl)picolinamide]
CCn1ncc2c3c(C(C)Nc4ccc(C)nc4-c4ccnn4C)cc(C)cc3c(=O)n(C)c21 (centres unmarked) [Compound 54, 3-ethyl-4,7-dimethyl-9-(1-((6-methyl-2-(1-methyl-1H-pyrazol-5-yl)pyridin-3-yl)amino)ethyl)-3,4-dihydro-5H-pyrazolo[3,4-c]isoquinolin-5-one]
[2H]C([2H])([2H])n1c(=O)c2cc(C)cc(C(C)Nc3ccc(Cl)nc3-c3cnn(C)c3)c2c2cnn(C3CCN(CC#N)C3)c21 (centres unmarked) [Compound 144, 2-(3-(9-(1-((6-chloro-2-(1-methyl-1H-pyrazol-4-yl)pyridin-3-yl)amino)ethyl)-7-methyl-4-(methyl-d3)-5-oxo-4,5-dihydro-3H-pyrazolo[3,4-c]isoquinolin-3-yl)pyrrolidin-1-yl)acetonitrile]
CC(=O)N1CCC(n2ncc3c4c(C(C)Nc5ccc(Cl)nc5-c5cnn(C)c5)cc(C)cc4c(=O)n(C)c32)CC1 (centres unmarked) [Compound 182, 3-(1-Acetylpiperidin-4-yl)-9-(1-((6-chloro-2-(1-methyl-1H-pyrazol-4-yl)pyridin-3-yl)amino)ethyl)-4,7-dimethyl-3,4-dihydro-5H-pyrazolo[3,4-c]isoquinolin-5-one]
Cc1cc(C(C)Nc2ccc(Cl)nc2-c2cnn(CCO)c2)c2c(c1)c(=O)n1c3c2cnn3CCC1 (centres unmarked) [Compound 300, 10-(1-((6-chloro-2-(1-(2-hydroxyethyl)-1H-pyrazol-4-yl)pyridin-3-yl)amino)ethyl)-8-methyl-4,5-dihydro-3H,6H-2,2a,5a-triazaaceanthrylen-6-one]
Cc1cc(C(C)Nc2ccc(Cl)nc2-c2ccc(=O)n(C)c2)c2c(c1)c(=O)n1c3c2cnn3CCC1 (centres unmarked) [Compound 308, 10-(1-((6-chloro-1′-methyl-6′-oxo-1′,6′-dihydro-[2,3′-pyridin]-3-yl)amino)ethyl)-8-methyl-4,5-dihydro-3H,6H-2,2a,5a-triazaaceanthrylen-6-one]
Cc1cc(C(C)Nc2ccc(Cl)nc2-c2noc(=O)[nH]2)c2c(c1)c(=O)n(C)c1c2cnn1-c1ccccn1 (centres unmarked) [Example 272, 3-(6-chloro-3-((1-(4,7-dimethyl-5-oxo-3-(pyridin-2-yl)-4,5-dihydro-3H-pyrazolo[3,4-c]isoquinolin-9-yl)ethyl)amino)pyridin-2-yl)-1,2,4-oxadiazol-5(4H)-one]
Cc1cc(C(C)Nc2ccc(Cl)nc2-c2ncn(C)n2)c2c(c1)c(=O)n(C)c1c2cnn1C1CCCN(CCO)C1 (centres unmarked) [Example 278, 9-[1-[[6-chloro-2-(1-methyl-1,2,4-triazol-3-yl)-3-pyridyl]amino]ethyl]-3-[1-(2-hydroxyethyl)-3-piperidyl]-4,7-dimethyl-pyrazolo[3,4-c]isoquinolin-5-one]
CCn1ncc2c3c(C(C)Nc4ccc(Cl)nc4-c4noc(=O)[nH]4)cc(C(F)(F)F)cc3c(=O)n(C)c21 (centres unmarked) [Compound 69, 3-(6-Chloro-3-((1-(3-ethyl-4-methyl-5-oxo-7-(trifluoromethyl)-4,5-dihydro-3H-pyrazolo[3,4-c]isoquinolin-9-yl)ethyl)amino)pyridin-2-yl)-1,2,4-oxadiazol-5(4H)-one]
Cc1cc(C(C)Nc2ccc(Cl)nc2-c2ncn(C)n2)c2c(c1)c(=O)n(C)c1c2cnn1C1CCN(CCO)C1 (centres unmarked) [Compound 138, 9-(1-((6-chloro-2-(1-methyl-1H-1,2,4-triazol-3-yl)pyridin-3-yl)amino)ethyl)-3-(1-(2-hydroxyethyl)pyrrolidin-3-yl)-4,7-dimethyl-3,4-dihydro-5H-pyrazolo[3,4-c]isoquinolin-5-one]
Cc1cc(C(C)Nc2ccc(Cl)nc2-c2noc(=O)[nH]2)c2c(c1)c(=O)n1c3c2cnn3C(C)CC1 (centres unmarked) [Compound 70, 3-(6-Chloro-3-((1-(3,8-dimethyl-6-oxo-4,5-dihydro-3H,6H-2,2a,5a-triazaaceanthrylen-10-yl)ethyl)amino)pyridin-2-yl)-1,2,4-oxadiazol-5(4H)-one]
Cc1cc(C(C)Nc2ccccc2C(=O)O)c2c(c1)c(=O)n(C)c1nccn21 (centres unmarked) [Compound I-14, 2-((1-(4,7-Dimethyl-5-oxo-4,5-dihydroimidazo[1,2-a]quinazolin-9-yl)ethyl)amino)benzoic acid]
Cc1cc(C(C)Nc2ccccc2C(=O)O)c2c(c1)c(=O)n(C)c1ncnn21 (centres unmarked) [Compound I-15, 2-((1-(4,7-Dimethyl-5-oxo-4,5-dihydro-[1,2,4]triazolo[1,5-a]quinazolin-9-yl)ethyl)amino)benzoic acid]
Cc1cc(C(C)Nc2ccc(Cl)nc2-c2ncn(C)n2)c2c(c1)c(=O)n1c3c2cnn3C(CO)CC1 (centres unmarked) [Example 284, 10-(1-((6-Chloro-2-(1-methyl-1H-1,2,4-triazol-3-yl)pyridin-3-yl)amino)ethyl)-3-(hydroxymethyl)-8-methyl-4,5-dihydro-3H,6H-2,2a,5a-triazaaceanthrylen-6-one]
CCc1ncn2c3c(C(C)Nc4ccccc4C(=O)O)cc(Cl)cc3c(=O)n(CC)c12 (centres unmarked) [Compound I-13, 2-((1-(7-Chloro-3,4-diethyl-5-oxo-4,5-dihydroimidazo[1,5-a]quinazolin-9-yl)ethyl)amino)benzoic acid]
Cc1cc(C(C)Nc2ccc(Cl)nc2C2CCN(C)CC2)c2c(c1)c(=O)n(C)c1c2cnn1CCO (centres unmarked) [Example 257, 9-[1-[[6-Chloro-2-(1-methyl-4-piperidyl)-3-pyridyl]amino]ethyl]-3-(2-hydroxyethyl)-4,7-dimethyl-pyrazolo[3,4-c]isoquinolin-5-one]
COc1ccc2c3c(C(C)Nc4ccccc4C(=O)O)cc(C)cc3c(=O)n(C)c2n1 (centres unmarked) [Compound I-32, 2-[1-(3-Methoxy-5,8-dimethyl-6-oxo-benzo[c][1,8]naphthyridin-10-yl)ethylamino]benzoic acid]
Cc1cc(C(C)Nc2ccc(Cl)nc2-c2cnn(C)c2)c2c(c1)c(=O)n(C)c1c2cnn1Cc1ccccn1 (centres unmarked) [Example 275, 9-[1-[[6-Chloro-2-(1-methylpyrazol-4-yl)-3-pyridyl]amino]ethyl]-4,7-dimethyl-3-(2-pyridylmethyl)pyrazolo[3,4-c]isoquinolin-5-one]
CNC(=O)c1ccc(-c2nc(Cl)ccc2NC(C)c2cc(C)cc3c(=O)n(C)c4c(cnn4C4CCN(C)CC4)c23)cn1 (centres unmarked) [Compound 163, 5-[6-chloro-3-[1-[4,7-dimethyl-3-(1-methyl-4-piperidyl)-5-oxo-pyrazolo[3,4-c]isoquinolin-9-yl]ethylamino]-2-pyridyl]-N-methyl-pyridine-2-carboxamide]
